According to patent US6406881B2 (priority 1999, dated 2002):

How the values were obtained:
Staphylococcus aureus = experiment: Mutant prevention concentration (MPC) against Staphylococcus aureus; format: cell-based; settings: for WI (MPC/MIC): window index
Escherichia coli = experiment: Mutant prevention concentration (MPC) against Escherichia coli; format: cell-based; settings: for WI (MPC/MIC): window index

Compound	MPC (MPC10^10) (Staphylococcus aureus)	WI (MPC/MIC) (Staphylococcus aureus)	WI (MPC/MIC) (Staphylococcus aureus; listed as chloramphenicol)	MPC (MPC10^10) (Escherichia coli)	WI (MPC/MIC) (Escherichia coli)	WI (MPC/MIC) (Staphylococcus aureus; listed as rifampicin)
O=C(N[C@H](CO)[C@H](O)c1ccc([N+](=O)[O-])cc1)C(Cl)Cl [Chloramphenicol]	40 μg/ml	21	about 21	12 μg/ml	6.3	–
CCn1cc(C(=O)O)c(=O)c2cc(F)c(N3CCNCC3)cc21 [Norfloxacin]	22 μg/ml	26	–	1.5 μg/ml	33	–
CO[C@H]1/C=C/O[C@@]2(C)Oc3c(C)c(O)c4c(O)c(c(/C=N/N5CCN(C)CC5)c(O)c4c3C2=O)NC(=O)/C(C)=C\C=C\[C@H](C)[C@H](O)[C@@H](C)[C@@H](O)[C@@H](C)[C@H](OC(C)=O)[C@@H]1C [Rifampicin]	480 μg/ml	120,000	–	>4,000 μg/ml	>800	greater than 120,000
NC[C@H]1O[C@H](O[C@H]2[C@H](O)[C@@H](O[C@H]3O[C@H](CO)[C@@H](O)[C@H](N)[C@H]3O)[C@H](N)C[C@@H]2N)[C@H](N)C[C@@H]1O [Tobramycin]	20 μg/ml	74	–	25 μg/ml	21	–
CN[C@H](CC(C)C)C(=O)N[C@H]1C(=O)N[C@@H](CC(N)=O)C(=O)N[C@H]2C(=O)N[C@H]3C(=O)N[C@H](C(=O)N[C@H](C(=O)O)c4cc(O)cc(O)c4-c4cc3ccc4O)[C@H](O)c3ccc(c(Cl)c3)Oc3cc2cc(c3O[C@@H]2O[C@H](CO)[C@@H](O)[C@H](O)[C@H]2O[C@H]2C[C@](C)(N)[C@H](O)[C@H](C)O2)Oc2ccc(cc2Cl)[C@H]1O [Vancomycin]	40 μg/ml	61	–	–	–	–
Penicillin	1 μg/ml	42	–	300 μg/ml	100	–
